{"source": "paper PMC7407272", "about": "“Induction of Lysosome Membrane Permeabilization as a Therapeutic Strategy to Target Pancreatic Cancer Stem Cells” (Cancers, 2020)", "test_in_all_cases": "KINOMEscan", "type_in_all_cases": "binding", "conditions_in_all_cases": "read-out: % Ctrl", "key": {"DAPK1": {"molecular_target": "T1, DAPK1 (Homo sapiens, UniProt P53355)", "T1 construct": "purchased DiscoveRx KINOMEscan"}, "EPHA3": {"molecular_target": "T2, EPHA3 (Homo sapiens, UniProt P29320)", "T2 construct": "purchased DiscoveRx KINOMEscan"}, "DLK": {"molecular_target": "T3, DLK (Homo sapiens, UniProt Q12852)", "T3 construct": "purchased DiscoveRx KINOMEscan"}, "MAP4K3": {"molecular_target": "T4, MAP4K3 (Homo sapiens, UniProt Q8IVH8)", "T4 construct": "purchased DiscoveRx KINOMEscan"}, "ACVR2B": {"molecular_target": "T5, ACVR2B (Homo sapiens, UniProt Q13705)", "T5 construct": "purchased DiscoveRx KINOMEscan"}, "FYN": {"molecular_target": "T6, FYN (Homo sapiens, UniProt P06241)", "T6 construct": "purchased DiscoveRx KINOMEscan"}, "DMPK": {"molecular_target": "T7, DMPK (Homo sapiens, UniProt Q09013)", "T7 construct": "purchased DiscoveRx KINOMEscan"}, "FGFR2": {"molecular_target": "T8, FGFR2 (Homo sapiens, UniProt P21802)", "T8 construct": "purchased DiscoveRx KINOMEscan", "T8 sequence (P21802 22-821)": "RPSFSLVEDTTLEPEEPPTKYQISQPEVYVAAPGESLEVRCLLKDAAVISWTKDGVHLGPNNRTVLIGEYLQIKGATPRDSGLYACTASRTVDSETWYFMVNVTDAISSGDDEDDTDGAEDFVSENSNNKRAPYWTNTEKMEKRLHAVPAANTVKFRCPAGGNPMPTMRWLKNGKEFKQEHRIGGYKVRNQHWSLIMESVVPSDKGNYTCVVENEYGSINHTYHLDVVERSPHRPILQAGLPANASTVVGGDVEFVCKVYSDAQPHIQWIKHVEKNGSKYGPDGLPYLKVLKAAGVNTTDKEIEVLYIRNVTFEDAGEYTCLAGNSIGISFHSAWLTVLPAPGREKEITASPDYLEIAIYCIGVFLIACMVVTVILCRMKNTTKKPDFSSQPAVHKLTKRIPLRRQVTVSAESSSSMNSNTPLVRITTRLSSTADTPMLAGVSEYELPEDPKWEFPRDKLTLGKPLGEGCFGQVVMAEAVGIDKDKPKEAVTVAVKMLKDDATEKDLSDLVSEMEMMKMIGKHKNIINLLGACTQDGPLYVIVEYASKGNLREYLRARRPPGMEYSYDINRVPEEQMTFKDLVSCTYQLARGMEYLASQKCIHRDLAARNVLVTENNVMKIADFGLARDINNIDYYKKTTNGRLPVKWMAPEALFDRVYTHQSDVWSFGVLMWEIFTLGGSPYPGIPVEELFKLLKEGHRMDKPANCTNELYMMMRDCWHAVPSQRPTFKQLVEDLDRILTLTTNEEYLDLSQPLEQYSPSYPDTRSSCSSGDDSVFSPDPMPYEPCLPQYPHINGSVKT"}, "RSK2(KD2-C-t.)": {"molecular_target": "T9, RSK2(KD2-C-t.) (Homo sapiens, UniProt P51812)", "T9 construct": "RSK2(KD2-C-t.); purchased DiscoveRx KINOMEscan", "T9 sequence (P51812 398-740 limits assumed)": "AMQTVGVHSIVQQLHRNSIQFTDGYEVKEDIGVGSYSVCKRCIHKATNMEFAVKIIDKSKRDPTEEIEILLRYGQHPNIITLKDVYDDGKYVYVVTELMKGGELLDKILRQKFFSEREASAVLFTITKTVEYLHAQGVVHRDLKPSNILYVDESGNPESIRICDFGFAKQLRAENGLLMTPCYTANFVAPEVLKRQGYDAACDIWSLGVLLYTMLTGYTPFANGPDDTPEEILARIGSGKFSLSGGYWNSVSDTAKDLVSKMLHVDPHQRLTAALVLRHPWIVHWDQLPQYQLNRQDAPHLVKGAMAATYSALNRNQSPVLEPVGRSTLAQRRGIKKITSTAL"}, "CSF1R-autoi.": {"molecular_target": "T10, CSF1R-autoi. (Homo sapiens, UniProt P07333)", "T10 construct": "purchased DiscoveRx KINOMEscan", "T10 sequence (P07333 539-972 limits assumed)": "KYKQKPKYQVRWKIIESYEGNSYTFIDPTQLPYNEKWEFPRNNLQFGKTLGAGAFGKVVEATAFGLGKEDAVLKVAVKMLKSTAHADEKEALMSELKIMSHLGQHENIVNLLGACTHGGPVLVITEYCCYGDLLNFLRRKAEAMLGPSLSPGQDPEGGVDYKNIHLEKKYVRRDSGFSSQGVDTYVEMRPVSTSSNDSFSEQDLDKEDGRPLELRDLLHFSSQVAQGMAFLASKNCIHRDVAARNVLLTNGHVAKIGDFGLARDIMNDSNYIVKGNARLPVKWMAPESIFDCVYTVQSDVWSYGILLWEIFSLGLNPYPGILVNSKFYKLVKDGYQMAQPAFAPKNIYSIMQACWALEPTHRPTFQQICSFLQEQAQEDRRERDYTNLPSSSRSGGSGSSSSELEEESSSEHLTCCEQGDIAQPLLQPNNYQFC"}, "FGFR1": {"molecular_target": "T11, FGFR1 (Homo sapiens, UniProt P11362)", "T11 construct": "purchased DiscoveRx KINOMEscan"}, "RIPK1": {"molecular_target": "T12, RIPK1 (Homo sapiens, UniProt Q13546)", "T12 construct": "purchased DiscoveRx KINOMEscan"}, "ERBB2": {"molecular_target": "T13, ERBB2 (Homo sapiens, UniProt P04626)", "T13 construct": "purchased DiscoveRx KINOMEscan"}, "ERK8": {"molecular_target": "T14, ERK8 (Homo sapiens, UniProt Q8TD08)", "T14 construct": "purchased DiscoveRx KINOMEscan"}, "CDK9": {"molecular_target": "T15, CDK9 (Homo sapiens, UniProt P50750)", "T15 construct": "purchased DiscoveRx KINOMEscan"}, "FGFR3": {"molecular_target": "T16, FGFR3 (Homo sapiens, UniProt P22607)", "T16 construct": "purchased DiscoveRx KINOMEscan", "T16 sequence (P22607 23-806)": "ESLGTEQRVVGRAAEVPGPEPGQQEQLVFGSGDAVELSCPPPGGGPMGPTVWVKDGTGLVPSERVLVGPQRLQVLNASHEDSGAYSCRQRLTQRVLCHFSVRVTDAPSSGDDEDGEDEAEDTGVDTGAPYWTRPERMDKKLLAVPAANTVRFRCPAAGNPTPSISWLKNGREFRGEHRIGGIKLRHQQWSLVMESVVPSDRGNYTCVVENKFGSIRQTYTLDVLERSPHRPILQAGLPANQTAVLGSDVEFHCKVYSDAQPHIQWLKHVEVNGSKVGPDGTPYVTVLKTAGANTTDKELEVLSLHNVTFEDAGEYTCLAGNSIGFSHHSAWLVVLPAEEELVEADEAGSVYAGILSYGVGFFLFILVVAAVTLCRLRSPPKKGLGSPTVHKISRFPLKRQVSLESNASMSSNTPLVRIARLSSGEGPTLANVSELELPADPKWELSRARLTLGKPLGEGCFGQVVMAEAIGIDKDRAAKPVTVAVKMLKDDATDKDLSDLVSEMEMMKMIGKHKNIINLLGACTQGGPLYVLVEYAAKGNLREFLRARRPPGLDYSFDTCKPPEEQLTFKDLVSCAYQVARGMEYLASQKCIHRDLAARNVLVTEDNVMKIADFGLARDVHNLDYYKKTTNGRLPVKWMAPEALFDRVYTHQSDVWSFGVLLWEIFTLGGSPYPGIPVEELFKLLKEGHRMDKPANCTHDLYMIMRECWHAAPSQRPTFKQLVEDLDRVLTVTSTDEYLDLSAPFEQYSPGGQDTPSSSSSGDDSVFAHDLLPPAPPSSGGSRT"}, "KIT(V559D,V654A)": {"molecular_target": "T17, KIT(V559D,V654A) (Homo sapiens, UniProt P10721, V559D/V654A)", "T17 construct": "purchased DiscoveRx KINOMEscan", "T17 sequence (P10721 26-976 V559D/V654A)": "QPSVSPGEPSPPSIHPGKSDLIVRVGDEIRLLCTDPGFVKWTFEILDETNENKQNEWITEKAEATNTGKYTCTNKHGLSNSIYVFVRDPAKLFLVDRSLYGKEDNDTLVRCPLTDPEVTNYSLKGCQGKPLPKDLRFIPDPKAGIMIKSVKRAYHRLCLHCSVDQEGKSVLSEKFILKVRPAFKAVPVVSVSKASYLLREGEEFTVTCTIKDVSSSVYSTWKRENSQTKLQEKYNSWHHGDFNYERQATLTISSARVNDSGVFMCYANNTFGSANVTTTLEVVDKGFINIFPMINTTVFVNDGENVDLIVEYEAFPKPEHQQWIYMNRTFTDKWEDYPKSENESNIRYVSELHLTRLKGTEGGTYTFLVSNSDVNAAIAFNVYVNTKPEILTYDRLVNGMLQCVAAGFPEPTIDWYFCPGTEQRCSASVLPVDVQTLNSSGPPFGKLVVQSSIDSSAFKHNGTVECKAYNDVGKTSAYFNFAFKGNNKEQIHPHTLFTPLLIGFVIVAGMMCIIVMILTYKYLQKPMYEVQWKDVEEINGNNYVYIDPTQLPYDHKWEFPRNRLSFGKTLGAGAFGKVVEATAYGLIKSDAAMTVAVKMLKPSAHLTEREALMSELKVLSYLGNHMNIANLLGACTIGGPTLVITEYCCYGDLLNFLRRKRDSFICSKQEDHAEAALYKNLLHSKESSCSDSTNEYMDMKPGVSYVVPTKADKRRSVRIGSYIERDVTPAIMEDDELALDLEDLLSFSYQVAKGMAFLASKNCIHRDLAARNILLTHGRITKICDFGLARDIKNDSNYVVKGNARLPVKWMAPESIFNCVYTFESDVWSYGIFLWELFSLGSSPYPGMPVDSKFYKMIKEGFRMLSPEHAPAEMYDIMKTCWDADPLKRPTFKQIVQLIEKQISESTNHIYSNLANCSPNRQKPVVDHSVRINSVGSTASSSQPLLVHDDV"}, "PAK6": {"molecular_target": "T18, PAK6 (Homo sapiens, UniProt Q9NQU5)", "T18 construct": "purchased DiscoveRx KINOMEscan"}, "DYRK1A": {"molecular_target": "T19, DYRK1A (Homo sapiens, UniProt Q13627)", "T19 construct": "purchased DiscoveRx KINOMEscan"}, "BRK": {"molecular_target": "T20, BRK (Homo sapiens, UniProt Q13882)", "T20 construct": "purchased DiscoveRx KINOMEscan"}, "ANKK1": {"molecular_target": "T21, ANKK1 (Homo sapiens, UniProt Q8NFD2)", "T21 construct": "purchased DiscoveRx KINOMEscan"}, "PIP5K2C": {"molecular_target": "T22, PIP5K2C (Homo sapiens, UniProt Q8TBX8)", "T22 construct": "purchased DiscoveRx KINOMEscan"}, "ABL1-nonP": {"molecular_target": "T23, ABL1-nonP (Homo sapiens, UniProt P00519)", "T23 construct": "purchased DiscoveRx KINOMEscan"}, "MEK5": {"molecular_target": "T24, MEK5 (Homo sapiens, UniProt Q13163)", "T24 construct": "purchased DiscoveRx KINOMEscan"}, "NEK5": {"molecular_target": "T25, NEK5 (Homo sapiens, UniProt Q6P3R8)", "T25 construct": "purchased DiscoveRx KINOMEscan"}, "TSSK1B": {"molecular_target": "T26, TSSK1B (Homo sapiens, UniProt Q9BXA7)", "T26 construct": "purchased DiscoveRx KINOMEscan"}, "RET(M918T)": {"molecular_target": "T27, RET(M918T) (Homo sapiens, UniProt P07949, M918T)", "T27 construct": "purchased DiscoveRx KINOMEscan", "T27 sequence (P07949 29-1114 M918T)": "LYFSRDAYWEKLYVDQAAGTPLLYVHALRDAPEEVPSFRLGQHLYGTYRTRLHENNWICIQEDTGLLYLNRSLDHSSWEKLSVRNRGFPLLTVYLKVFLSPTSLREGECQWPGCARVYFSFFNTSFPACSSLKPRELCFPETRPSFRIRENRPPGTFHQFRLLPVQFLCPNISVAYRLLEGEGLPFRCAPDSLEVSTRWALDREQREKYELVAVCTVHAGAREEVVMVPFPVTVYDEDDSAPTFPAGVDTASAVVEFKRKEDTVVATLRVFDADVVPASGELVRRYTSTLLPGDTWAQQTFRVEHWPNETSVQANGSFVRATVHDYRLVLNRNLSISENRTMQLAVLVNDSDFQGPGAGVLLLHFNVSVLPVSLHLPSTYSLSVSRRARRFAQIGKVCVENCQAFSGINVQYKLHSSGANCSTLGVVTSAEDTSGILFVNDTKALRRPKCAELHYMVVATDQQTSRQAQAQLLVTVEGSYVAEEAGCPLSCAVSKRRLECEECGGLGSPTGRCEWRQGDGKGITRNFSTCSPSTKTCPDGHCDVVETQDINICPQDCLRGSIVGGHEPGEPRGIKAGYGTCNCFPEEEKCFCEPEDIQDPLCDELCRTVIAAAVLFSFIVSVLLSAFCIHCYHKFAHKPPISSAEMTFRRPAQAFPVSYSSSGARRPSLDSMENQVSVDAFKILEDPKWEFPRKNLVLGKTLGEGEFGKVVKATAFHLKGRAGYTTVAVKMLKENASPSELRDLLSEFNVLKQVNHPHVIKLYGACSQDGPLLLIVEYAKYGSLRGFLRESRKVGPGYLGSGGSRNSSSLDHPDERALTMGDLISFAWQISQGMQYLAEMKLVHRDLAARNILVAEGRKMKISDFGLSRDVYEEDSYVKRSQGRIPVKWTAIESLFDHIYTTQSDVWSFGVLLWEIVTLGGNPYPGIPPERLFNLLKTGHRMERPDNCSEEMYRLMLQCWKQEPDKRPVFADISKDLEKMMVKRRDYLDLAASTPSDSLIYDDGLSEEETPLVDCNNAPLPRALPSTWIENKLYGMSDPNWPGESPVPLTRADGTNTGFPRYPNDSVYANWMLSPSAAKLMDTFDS"}, "CIT": {"molecular_target": "T28, CIT (Homo sapiens, UniProt O14578)", "T28 construct": "purchased DiscoveRx KINOMEscan"}, "PLK4": {"molecular_target": "T29, PLK4 (Homo sapiens, UniProt O00444)", "T29 construct": "purchased DiscoveRx KINOMEscan"}, "EPHA5": {"molecular_target": "T30, EPHA5 (Homo sapiens, UniProt P54756)", "T30 construct": "purchased DiscoveRx KINOMEscan"}, "MTOR": {"molecular_target": "T31, MTOR (Homo sapiens, UniProt P42345)", "T31 construct": "purchased DiscoveRx KINOMEscan"}, "TSSK3": {"molecular_target": "T32, TSSK3 (Homo sapiens, UniProt Q96PN8)", "T32 construct": "purchased DiscoveRx KINOMEscan"}, "DCAMKL1": {"molecular_target": "T33, DCAMKL1 (Homo sapiens, UniProt O15075)", "T33 construct": "purchased DiscoveRx KINOMEscan"}, "RIPK4": {"molecular_target": "T34, RIPK4 (Homo sapiens, UniProt P57078)", "T34 construct": "purchased DiscoveRx KINOMEscan"}, "TNIK": {"molecular_target": "T35, TNIK (Homo sapiens, UniProt Q9UKE5)", "T35 construct": "purchased DiscoveRx KINOMEscan"}, "BMPR1B": {"molecular_target": "T36, BMPR1B (Homo sapiens, UniProt O00238)", "T36 construct": "purchased DiscoveRx KINOMEscan", "T36 sequence (O00238 14-502)": "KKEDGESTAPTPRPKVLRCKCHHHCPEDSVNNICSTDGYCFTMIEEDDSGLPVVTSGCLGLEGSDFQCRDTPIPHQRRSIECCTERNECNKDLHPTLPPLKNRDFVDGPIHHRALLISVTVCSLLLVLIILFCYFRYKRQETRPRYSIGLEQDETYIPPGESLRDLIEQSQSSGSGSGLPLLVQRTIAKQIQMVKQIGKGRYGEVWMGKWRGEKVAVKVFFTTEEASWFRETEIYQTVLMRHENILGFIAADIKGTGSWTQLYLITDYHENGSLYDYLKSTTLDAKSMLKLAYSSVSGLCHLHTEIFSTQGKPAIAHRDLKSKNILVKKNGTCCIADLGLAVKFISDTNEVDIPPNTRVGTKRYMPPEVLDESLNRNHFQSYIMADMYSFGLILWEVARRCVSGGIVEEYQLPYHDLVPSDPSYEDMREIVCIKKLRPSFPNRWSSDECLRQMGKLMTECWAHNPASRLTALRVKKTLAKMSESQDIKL"}, "TAOK1": {"molecular_target": "T37, TAOK1 (Homo sapiens, UniProt Q7L7X3)", "T37 construct": "purchased DiscoveRx KINOMEscan"}, "CSNK1A1": {"molecular_target": "T38, CSNK1A1 (Homo sapiens, UniProt P48729)", "T38 construct": "purchased DiscoveRx KINOMEscan"}, "CAMKK2": {"molecular_target": "T39, CAMKK2 (Homo sapiens, UniProt Q96RR4)", "T39 construct": "purchased DiscoveRx KINOMEscan"}, "CSNK2A1": {"molecular_target": "T40, CSNK2A1 (Homo sapiens, UniProt P68400)", "T40 construct": "purchased DiscoveRx KINOMEscan"}, "NEK4": {"molecular_target": "T41, NEK4 (Homo sapiens, UniProt P51957)", "T41 construct": "purchased DiscoveRx KINOMEscan"}, "PIK3C2B": {"molecular_target": "T42, PIK3C2B (Homo sapiens, UniProt O00750)", "T42 construct": "purchased DiscoveRx KINOMEscan"}}, "data": [{"smiles": "CN1CCC(CNc2ccc3ncc(C(=O)Nc4cccc(OC(F)(F)F)c4)n3n2)CC1", "note": "[Cpd 2]", "values": [{"measurement": "remaining binding at 1 µM", "setting": "DAPK1", "result": 82, "unit": "%"}, {"measurement": "remaining binding at 1 µM", "setting": "EPHA3", "result": 92, "unit": "%"}, {"measurement": "remaining binding at 1 µM", "setting": "DLK", "result": 100, "unit": "%"}, {"measurement": "remaining binding at 1 µM", "setting": "MAP4K3", "result": 95, "unit": "%"}, {"measurement": "remaining binding at 1 µM", "setting": "ACVR2B", "result": 100, "unit": "%"}, {"measurement": "remaining binding at 1 µM", "setting": "FYN", "result": 96, "unit": "%"}, {"measurement": "remaining binding at 1 µM", "setting": "DMPK", "result": 88, "unit": "%"}, {"measurement": "remaining binding at 1 µM", "setting": "FGFR2", "result": 100, "unit": "%"}, {"measurement": "remaining binding at 1 µM", "setting": "RSK2(KD2-C-t.)", "result": 100, "unit": "%"}, {"measurement": "remaining binding at 1 µM", "setting": "CSF1R-autoi.", "result": 88, "unit": "%"}, {"measurement": "remaining binding at 1 µM", "setting": "FGFR1", "result": 100, "unit": "%"}, {"measurement": "remaining binding at 1 µM", "setting": "RIPK1", "result": 100, "unit": "%"}, {"measurement": "remaining binding at 1 µM", "setting": "ERBB2", "result": 88, "unit": "%"}, {"measurement": "remaining binding at 1 µM", "setting": "ERK8", "result": 96, "unit": "%"}, {"measurement": "remaining binding at 1 µM", "setting": "CDK9", "result": 98, "unit": "%"}, {"measurement": "remaining binding at 1 µM", "setting": "FGFR3", "result": 98, "unit": "%"}, {"measurement": "remaining binding at 1 µM", "setting": "KIT(V559D,V654A)", "result": 91, "unit": "%"}, {"measurement": "remaining binding at 1 µM", "setting": "PAK6", "result": 98, "unit": "%"}, {"measurement": "remaining binding at 1 µM", "setting": "DYRK1A", "result": 100, "unit": "%"}, {"measurement": "remaining binding at 1 µM", "setting": "BRK", "result": 99, "unit": "%"}, {"measurement": "remaining binding at 1 µM", "setting": "ANKK1", "result": 94, "unit": "%"}, {"measurement": "remaining binding at 1 µM", "setting": "PIP5K2C", "result": 58, "unit": "%"}, {"measurement": "remaining binding at 1 µM", "setting": "ABL1-nonP", "result": 100, "unit": "%"}, {"measurement": "remaining binding at 1 µM", "setting": "MEK5", "result": 73, "unit": "%"}, {"measurement": "remaining binding at 1 µM", "setting": "NEK5", "result": 98, "unit": "%"}, {"measurement": "remaining binding at 1 µM", "setting": "TSSK1B", "result": 95, "unit": "%"}, {"measurement": "remaining binding at 1 µM", "setting": "RET(M918T)", "result": 100, "unit": "%"}, {"measurement": "remaining binding at 1 µM", "setting": "CIT", "result": 60, "unit": "%"}, {"measurement": "remaining binding at 1 µM", "setting": "PLK4", "result": 82, "unit": "%"}, {"measurement": "remaining binding at 1 µM", "setting": "EPHA5", "result": 100, "unit": "%"}, {"measurement": "remaining binding at 1 µM", "setting": "MTOR", "result": 100, "unit": "%"}, {"measurement": "remaining binding at 1 µM", "setting": "TSSK3", "result": 95, "unit": "%"}, {"measurement": "remaining binding at 1 µM", "setting": "DCAMKL1", "result": 85, "unit": "%"}, {"measurement": "remaining binding at 1 µM", "setting": "RIPK4", "result": 96, "unit": "%"}, {"measurement": "remaining binding at 1 µM", "setting": "TNIK", "result": 81, "unit": "%"}, {"measurement": "remaining binding at 1 µM", "setting": "BMPR1B", "result": 99, "unit": "%"}, {"measurement": "remaining binding at 1 µM", "setting": "TAOK1", "result": 82, "unit": "%"}, {"measurement": "remaining binding at 1 µM", "setting": "CSNK1A1", "result": 100, "unit": "%"}, {"measurement": "remaining binding at 1 µM", "setting": "CAMKK2", "result": 100, "unit": "%"}, {"measurement": "remaining binding at 1 µM", "setting": "CSNK2A1", "result": 98, "unit": "%"}, {"measurement": "remaining binding at 1 µM", "setting": "NEK4", "result": 100, "unit": "%"}, {"measurement": "remaining binding at 1 µM", "setting": "PIK3C2B", "result": 48, "unit": "%"}]}]}
